In ChEMBL document CHEMBL1201862, “PubChem BioAssay data set” (2004):
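Method: 48-hour compound exposure of cells in 96-well plates, five concentrations, linear interpolation of endpoints. GI50: concentration for 50% inhibition of growth.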 The source made the active and inactive calls. No stated cut-off is given here; in the data, active = GI50 up to about 1.1 µM and inactive = higher.

Columns and labels:
Assay in all cases: NCI tumour cell line growth inhibition, 48 h
SN12C = test system: SN12C
NCI/ADR-RES = test system: NCI/ADR-RES
HCT-15 = test system: HCT-15
MDA-N = test system: MDA-N
NCI-H460 = test system: NCI-H460
KM12 = test system: KM12
SNB-75 = test system: SNB-75
PC-3 = test system: PC-3
A498 = test system: A498
COLO 205 = test system: COLO 205
SF-539 = test system: SF-539
HL-60 = test system: HL-60
HT-29 = test system: HT-29
M14 = test system: M14
CCRF-CEM = test system: CCRF-CEM
MCF7 = test system: MCF7
ACHN = test system: ACHN
Hs-578T = test system: Hs-578T
OVCAR-4 = test system: OVCAR-4
NCI-H23 = test system: NCI-H23
EKVX = test system: EKVX
UACC-62 = test system: UACC-62
SK-MEL-28 = test system: SK-MEL-28
MDA-MB-231 = test system: MDA-MB-231
HCT-116 = test system: HCT-116
K562 = test system: K562
U-251 = test system: U-251
OVCAR-3 = test system: OVCAR-3
LOX IMVI = test system: LOX IMVI
Malme-3M = test system: Malme-3M
TK-10 = test system: TK-10
RXF 393 = test system: RXF 393
MDA-MB-435 = test system: MDA-MB-435
OVCAR-5 = test system: OVCAR-5
OVCAR-8 = test system: OVCAR-8
IGROV-1 = test system: IGROV-1
HCC 2998 = test system: HCC 2998
A549 = test system: A549
CAKI-1 = test system: CAKI-1
SK-OV-3 = test system: SK-OV-3
SF-295 = test system: SF-295
SK-MEL-5 = test system: SK-MEL-5
SNB-19 = test system: SNB-19
SW-620 = test system: SW-620
MOLT-4 = test system: MOLT-4
NCI-H522 = test system: NCI-H522
786-0 = test system: 786-0
T47D = test system: T47D
SF-268 = test system: SF-268
SR = test system: SR
HOP-92 = test system: HOP-92
UACC-257 = test system: UACC-257
NCI-H226 = test system: NCI-H226
RPMI-8226 = test system: RPMI-8226
HOP-62 = test system: HOP-62
DU-145 = test system: DU-145
SK-MEL-2 = test system: SK-MEL-2
UO-31 = test system: UO-31
BT-549 = test system: BT-549

Measured: GI50

CCOC(=O)c1sc2c(c1OC(=O)c1ccc(OC)cc1)c(=O)n(-c1ccccc1)c(=S)n2-c1ccccc1
inactive: SN12C 75.7 µM | NCI/ADR-RES 21.8 µM | MDA-N > 100 µM | NCI-H460 94.6 µM | KM12 > 100 µM | SNB-75 > 100 µM | PC-3 > 100 µM | A498 17.1 µM | COLO 205 > 100 µM | SF-539 77.8 µM | HL-60 > 100 µM | HT-29 > 100 µM | M14 > 100 µM | CCRF-CEM > 100 µM | MCF7 > 100 µM | ACHN > 100 µM | Hs-578T > 100 µM | OVCAR-4 10.2 µM | NCI-H23 > 100 µM | EKVX > 100 µM | UACC-62 > 100 µM | SK-MEL-28 > 100 µM | MDA-MB-231 16.4 µM | HCT-116 20.7 µM | K562 > 100 µM | U-251 > 100 µM | OVCAR-3 > 100 µM | LOX IMVI > 100 µM | Malme-3M 61.7 µM | TK-10 > 100 µM | RXF 393 > 100 µM | MDA-MB-435 > 100 µM | OVCAR-5 > 100 µM | OVCAR-8 > 100 µM | IGROV-1 > 100 µM | HCC 2998 16.3 µM | A549 > 100 µM | CAKI-1 > 100 µM | SK-OV-3 > 100 µM | SF-295 > 100 µM | SK-MEL-5 27.6 µM | SNB-19 > 100 µM | SW-620 > 100 µM | MOLT-4 > 100 µM | NCI-H522 1.41 µM | 786-0 35.5 µM | T47D > 100 µM | SF-268 > 100 µM | SR 36.5 µM | HOP-92 20.9 µM | UACC-257 > 100 µM | NCI-H226 24.9 µM | RPMI-8226 > 100 µM | HOP-62 54 µM | DU-145 > 100 µM
> 100 µM: HCT-15

O=c1sc(Nc2ccc3ccccc3c2Cl)nc2ccccc12
> 100 µM: HCT-15
inactive: SN12C > 100 µM | NCI/ADR-RES > 100 µM | SK-MEL-2 > 100 µM | NCI-H460 60.4 µM | KM12 > 100 µM | SNB-75 49.3 µM | PC-3 > 100 µM | COLO 205 > 100 µM | SF-539 73.8 µM | HL-60 26.5 µM | HT-29 > 100 µM | CCRF-CEM > 100 µM | MCF7 > 100 µM | ACHN > 100 µM | UO-31 > 100 µM | Hs-578T 57.1 µM | OVCAR-4 > 100 µM | NCI-H23 > 100 µM | EKVX > 100 µM | UACC-62 > 100 µM | SK-MEL-28 > 100 µM | MDA-MB-231 > 100 µM | HCT-116 > 100 µM | K562 > 100 µM | U-251 > 100 µM | OVCAR-3 > 100 µM | LOX IMVI > 100 µM | Malme-3M > 100 µM | TK-10 > 100 µM | RXF 393 72.1 µM | MDA-MB-435 37.1 µM | OVCAR-5 > 100 µM | IGROV-1 > 100 µM | HCC 2998 > 100 µM | A549 > 100 µM | CAKI-1 35.9 µM | SK-OV-3 > 100 µM | SF-295 > 100 µM | SK-MEL-5 > 100 µM | SNB-19 > 100 µM | SW-620 > 100 µM | BT-549 > 100 µM | NCI-H522 > 100 µM | 786-0 > 100 µM | T47D > 100 µM | SF-268 > 100 µM | SR 7.08 µM | HOP-92 35.9 µM | UACC-257 > 100 µM | RPMI-8226 > 100 µM | HOP-62 > 100 µM | DU-145 > 100 µM

C/C(=C\Cc1ccc(F)cc1)CCCCCC/C(C)=C/Cc1ccc(F)cc1
16.8 µM: HCT-15
inactive: SN12C 15.7 µM | NCI/ADR-RES 11.9 µM | SK-MEL-2 16.9 µM | MDA-N 18.5 µM | NCI-H460 4.71 µM | KM12 2.25 µM | SNB-75 18.7 µM | PC-3 15.8 µM | COLO 205 16.4 µM | SF-539 16.7 µM | HT-29 16.1 µM | M14 17.4 µM | CCRF-CEM 8.28 µM | MCF7 19.3 µM | ACHN 12.2 µM | UO-31 10.7 µM | Hs-578T 30.8 µM | OVCAR-4 16.3 µM | NCI-H23 10.8 µM | EKVX 14.9 µM | UACC-62 16.6 µM | MDA-MB-231 17.9 µM | HCT-116 15.8 µM | K562 5.3 µM | U-251 18.1 µM | OVCAR-3 22.9 µM | LOX IMVI 3.91 µM | TK-10 15.5 µM | RXF 393 20.7 µM | MDA-MB-435 16.5 µM | OVCAR-5 16.2 µM | OVCAR-8 14.4 µM | IGROV-1 4.63 µM | A549 3.65 µM | CAKI-1 9.89 µM | SK-OV-3 37.8 µM | SF-295 10 µM | SK-MEL-5 12.1 µM | SNB-19 32.9 µM | SW-620 17.9 µM | MOLT-4 17.7 µM | BT-549 28.6 µM | NCI-H522 6.59 µM | 786-0 7.13 µM | SF-268 19.5 µM | SR 18.3 µM | HOP-92 10.2 µM | UACC-257 18.1 µM | HOP-62 10.5 µM | DU-145 14.2 µM

C=CCN(C(=O)OC(C)(C)C)C1=CC2C(C)=CN(S(=O)(=O)c3ccccc3)C2C(OCc2ccccc2)=C1 (stereo not drawn)
inactive: SN12C > 100 µM | NCI/ADR-RES > 100 µM | SK-MEL-2 > 100 µM | MDA-N > 100 µM | NCI-H460 > 100 µM | KM12 > 100 µM | SNB-75 6.18 µM | PC-3 > 100 µM | COLO 205 > 100 µM | HL-60 > 100 µM | HT-29 13.4 µM | M14 > 100 µM | CCRF-CEM > 100 µM | MCF7 > 100 µM | ACHN > 100 µM | UO-31 > 100 µM | Hs-578T > 100 µM | OVCAR-4 > 100 µM | NCI-H23 > 100 µM | EKVX > 100 µM | UACC-62 > 100 µM | SK-MEL-28 > 100 µM | MDA-MB-231 > 100 µM | HCT-116 54 µM | K562 7.59 µM | U-251 > 100 µM | OVCAR-3 > 100 µM | LOX IMVI > 100 µM | Malme-3M > 100 µM | TK-10 > 100 µM | RXF 393 36.1 µM | MDA-MB-435 > 100 µM | OVCAR-5 > 100 µM | OVCAR-8 > 100 µM | IGROV-1 > 100 µM | HCC 2998 > 100 µM | A549 > 100 µM | CAKI-1 > 100 µM | SK-OV-3 > 100 µM | SF-295 > 100 µM | SK-MEL-5 > 100 µM | SW-620 > 100 µM | MOLT-4 > 100 µM | BT-549 > 100 µM | NCI-H522 > 100 µM | 786-0 > 100 µM | UACC-257 > 100 µM | NCI-H226 > 100 µM | RPMI-8226 > 100 µM | HOP-62 > 100 µM | DU-145 > 100 µM
> 100 µM: HCT-15

COc1cc(/C=C/C(=O)CC(=O)/C=C/c2ccc(O)c(OC)c2)ccc1O [CURCUMIN]
4.12 µM: HCT-15
inactive: SN12C 8.41 µM | NCI/ADR-RES 7.26 µM | SK-MEL-2 16.5 µM | NCI-H460 8.07 µM | KM12 5.45 µM | SNB-75 6.84 µM | PC-3 8.79 µM | A498 16 µM | COLO 205 13.5 µM | SF-539 2.84 µM | HL-60 7.33 µM | HT-29 5.09 µM | M14 3.78 µM | CCRF-CEM 3.03 µM | MCF7 3.34 µM | ACHN 12.4 µM | UO-31 11.3 µM | Hs-578T 10.9 µM | OVCAR-4 9.33 µM | NCI-H23 5.6 µM | UACC-62 6.49 µM | SK-MEL-28 4.5 µM | MDA-MB-231 17.8 µM | HCT-116 2.92 µM | K562 3.13 µM | U-251 4.72 µM | OVCAR-3 6.64 µM | LOX IMVI 2.72 µM | Malme-3M 14 µM | TK-10 14.2 µM | RXF 393 3 µM | MDA-MB-435 2.98 µM | OVCAR-5 16.6 µM | OVCAR-8 7.35 µM | IGROV-1 7.89 µM | HCC 2998 3.02 µM | A549 12.8 µM | CAKI-1 11.9 µM | SK-OV-3 8.91 µM | SF-295 8.04 µM | SK-MEL-5 8.81 µM | SNB-19 9.42 µM | SW-620 4.19 µM | MOLT-4 4.68 µM | BT-549 4.97 µM | NCI-H522 5.33 µM | 786-0 3.33 µM | T47D 8.36 µM | SF-268 7.06 µM | SR 3.28 µM | UACC-257 11.5 µM | NCI-H226 18.8 µM | RPMI-8226 2.09 µM | HOP-62 3.63 µM | DU-145 15.7 µM
